The target of this assay is T1, Aromatase (Homo sapiens, UniProt P11511).
T1 sequence (P11511 whole entry): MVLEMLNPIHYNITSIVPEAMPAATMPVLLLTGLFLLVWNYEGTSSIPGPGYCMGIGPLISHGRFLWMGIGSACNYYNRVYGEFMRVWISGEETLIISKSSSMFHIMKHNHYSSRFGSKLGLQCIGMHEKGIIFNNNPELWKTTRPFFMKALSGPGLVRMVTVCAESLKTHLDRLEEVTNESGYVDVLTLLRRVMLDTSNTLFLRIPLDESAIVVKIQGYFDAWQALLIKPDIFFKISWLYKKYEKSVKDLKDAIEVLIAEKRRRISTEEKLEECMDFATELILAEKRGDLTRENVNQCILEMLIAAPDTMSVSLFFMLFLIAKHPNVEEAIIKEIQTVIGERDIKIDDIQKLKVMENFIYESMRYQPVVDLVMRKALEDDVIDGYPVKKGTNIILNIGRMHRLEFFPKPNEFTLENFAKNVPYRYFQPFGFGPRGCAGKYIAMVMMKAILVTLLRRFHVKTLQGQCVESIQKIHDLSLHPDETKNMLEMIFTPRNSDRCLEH
As to `C[C@]12CCC(=O)C=C1[C@@H](c1ccc(OS(N)(=O)=O)cc1)C[C@@H]1[C@@H]2CC[C@]2(C)C(=O)CC[C@@H]12`, the Ki was 39 nM.

For the molecule `CCCCCC1=C[C@@H]2[C@H](CC[C@]3(C)C(=O)CC[C@@H]23)[C@@]2(C)C=CC(=O)C=C12`, the Ki came out at 2.5 nM.

In turn, `C[C@]12CC[C@@H]3c4ccc(O)cc4[C@@H](CCCc4ccccc4)C[C@H]3[C@@H]1CCC2=O` came in with a Ki of 100 nM.

The molecule `C[C@]12CC[C@@H]3c4cc(NC(=O)c5ccncc5)c(O)cc4CC[C@H]3[C@@H]1CCC2=O` returned a Ki of 2100 nM.

As to `CCC1=C[C@@H]2[C@H](CC[C@]3(C)C(=O)CC[C@@H]23)[C@@]2(C)CCC(=O)C=C12`, the Ki worked out at 17 nM.

`C[C@]12CC[C@@H]3c4cc(Br)c(O)cc4CC[C@H]3[C@@H]1CC[C@@H]2O` came in with an inhibition constant Ki of 100 nM.

With `C[C@@H]1C[C@@H]2[C@H](CC[C@]3(C)[C@@H](O)CC[C@@H]23)c2ccc(O)cc21`, the Ki is 100 nM. This counts as sub-micromolar.

The molecule `C[C@H]1C[C@@H]2[C@H](CC[C@]3(C)[C@@H](O)CC[C@@H]23)c2ccc(O)cc21` registered a Ki of 100 nM.

As to `CC(=O)O[C@@H]1C[C@@H]2[C@H](CC[C@]3(C)C(=O)CC[C@@H]23)[C@@]2(C)CCCC=C12`, the Ki is 12 nM.

`CCCC1=C[C@@H]2[C@H](CC[C@]3(C)C(=O)CC[C@@H]23)[C@@]2(C)CCC(=O)C=C12` came in with a Ki of 17 nM.

Molecule `C[C@]12CC[C@@H]3c4cc(Br)c(O)cc4CC[C@H]3[C@@H]1CCC2=O` had a Ki of 100 nM.

Molecule `C[C@]12C=CC(=O)C=C1C(c1ccc(O)cc1)=C[C@@H]1[C@@H]2CC[C@]2(C)C(=O)CC[C@@H]12` gave an inhibition constant Ki of 75 nM.

`C[C@]12CC[C@H]3[C@@H](C(=O)[C@H]4O[C@]45C(=O)CCC[C@]35C)[C@@H]1CCC2=O` yielded a Ki of 5000 nM.

In the case of `C[C@]12C=CC(=O)C=C1C(CCc1ccccc1)=C[C@@H]1[C@@H]2CC[C@]2(C)C(=O)CC[C@@H]12`, the affinity corresponds to a Ki of 8.5 nM.

Molecule `C[C@]12CCCC(OC(=O)c3ccccc3)=C1CC[C@@H]1[C@@H]2CC[C@]2(C)C(=O)CC[C@@H]12` came in with a Ki of 70 nM. Against the preceding molecule, the Ki is about 8.2-fold higher.

As to `CC(=O)OC1=C2CC[C@@H]3[C@H](CC[C@]4(C)C(=O)CC[C@@H]34)[C@@]2(C)CCC1`, the Ki came out at 60 nM. This Ki and that of the molecule before are within 1.5-fold of each other.

Take `CCCCCCCC[C@@H]1C[C@@H]2[C@H](CC[C@]3(C)C(=O)CC[C@@H]23)[C@@]2(C)CCC(=O)C=C12`: affinity was put at a Ki of 2.8 nM.

In the case of `C[C@]12CCC(=O)C=C1[C@H](CCCCc1ccccc1)C[C@@H]1[C@@H]2CC[C@]2(C)C(=O)CC[C@@H]12`, the affinity, expressed as Ki, was 16 nM.

Molecule `CCCCCCC1=C[C@@]2(C)C(=C(O)C1=O)CC[C@@H]1[C@@H]2CC[C@]2(C)C(=O)CC[C@@H]12` showed a Ki of 31 nM. Compared with the last molecule, the Ki is about 1.9-fold higher.

Consider `C[C@]12CC[C@H]3[C@@H](CC(=O)[C@]45O[C@H]4C(=O)CC[C@]35C)[C@@H]1CCC2=O`, for which the inhibition constant Ki came to 5000 nM. This Ki lies about 160-fold higher than the previous one.

Molecule `C[C@]12CCC(=O)C=C1C(c1ccc(O)cc1)=C[C@@H]1[C@@H]2CC[C@]2(C)C(=O)CC[C@@H]12` displayed a Ki of 23 nM.

For the molecule `COC1=C[C@@]2(C)C(=CC1=O)CC[C@@H]1[C@@H]2CC[C@]2(C)C(=O)CC[C@@H]12`, affinity was put at a Ki of 95 nM. Compared with the last molecule, the Ki is about 4.1-fold higher.

`CC(=O)O[C@H]1C[C@@H]2[C@H](CC[C@]3(C)C(=O)CC[C@@H]23)[C@@]2(C)CCCC=C12` yielded a Ki of 12 nM.

`CCCCCC(=O)O[C@H]1C[C@@H]2[C@H](CC[C@]3(C)C(=O)CC[C@@H]23)[C@@]2(C)CCC(=O)C=C12` showed a Ki of 7 nM.

For `Cc1cc2c(cc1O)CC[C@@H]1[C@@H]2CC[C@]2(C)[C@@H](O)CC[C@@H]12`, the inhibition constant (Ki) is 100 nM.

Regarding `C[C@]12CC[C@@H]3c4ccc(O)cc4[C@H](CCCc4ccccc4)C[C@H]3[C@@H]1CC[C@@H]2O`, the Ki stood at 100 nM. This counts as sub-micromolar.

For the molecule `C[C@]12CCC(=O)C=C1C(c1ccc(OS(N)(=O)=O)cc1)=C[C@@H]1[C@@H]2CC[C@]2(C)C(=O)CC[C@@H]12`, the Ki is 30 nM.

The molecule `C[C@]12CC[C@@H]3c4cc(Cl)c(O)cc4CC[C@H]3[C@@H]1CC[C@@H]2O` came in with a Ki of 100 nM.

In turn, `C[C@@H]1C[C@@H]2[C@H](CC[C@]3(C)C(=O)CC[C@@H]23)[C@@]2(C)CCCC=C12` came in with a Ki of 5.3 nM.

The molecule `CCCCCC[C@@H]1C[C@@H]2[C@H](CC[C@]3(C)C(=O)CC[C@@H]23)[C@@]2(C)CCC(=O)C=C12` had a Ki of 2.8 nM.

As for `C[C@]12CCC(=O)C=C1C(CCc1ccccc1)=C[C@@H]1[C@@H]2CC[C@]2(C)C(=O)CC[C@@H]12`, affinity was put at a Ki of 10 nM.

Regarding `C[C@]12CCC(=O)C=C1[C@@H](CCc1ccccc1)C[C@@H]1[C@@H]2CC[C@]2(C)C(=O)CC[C@@H]12`, the Ki is 16 nM.

`C[C@]12CCC(=O)C=C1C(Cc1ccccc1)=C[C@@H]1[C@@H]2CC[C@]2(C)C(=O)CC[C@@H]12` had a Ki of 9 nM.

In the case of `C[C@]12CCCC(=O)C1=CC[C@@H]1[C@@H]2CC[C@]2(C)C(=O)CC[C@@H]12`, the Ki came out at 120 nM.

Molecule `C[C@H]1C[C@@H]2[C@H](CC[C@]3(C)C(=O)CC[C@@H]23)[C@@]2(C)CCCC=C12` registered a Ki of 3.1 nM.

`C[C@]12CC[C@@H]3c4ccc(O)c(NC(=O)c5ccncc5)c4CC[C@H]3[C@@H]1CCC2=O` gave a Ki of 1530 nM.

For the molecule `C[C@]12CC[C@@H]3c4ccc(O)cc4[C@H](CCCc4ccccc4)C[C@H]3[C@@H]1CCC2=O`, affinity was put at a Ki of 100 nM.

The molecule `C[C@]12CC[C@@H]3c4ccc(O)cc4[C@@H](Cc4ccccc4)C[C@H]3[C@@H]1CCC2=O` gave an inhibition constant (Ki) of 100 nM. This counts as sub-micromolar.

`C[C@]12CCC(=O)C=C1CC[C@@H]1[C@@H]2CC[C@]2(C)C(=O)CC[C@@H]12` [ANDROSTENEDIONE] displayed a Ki of 35 nM.

Regarding `CCCCCCCC1=C[C@@H]2[C@H](CC[C@]3(C)C(=O)CC[C@@H]23)[C@@]2(C)CCC(=O)C=C12`, the Ki was found to be 17 nM.

`CCCCCCC1=C[C@@H]2[C@H](CC[C@]3(C)C(=O)CC[C@@H]23)[C@@]2(C)C=CC(=O)C=C12` came in with a Ki of 2.5 nM.

On to `Cc1cc2c(cc1O)CC[C@@H]1[C@@H]2CC[C@]2(C)C(=O)CC[C@@H]12`, for which the affinity corresponds to a Ki of 100 nM.

For the molecule `CCCCC1=C[C@@H]2[C@H](CC[C@]3(C)C(=O)CC[C@@H]23)[C@@]2(C)CCC(=O)C=C12`, the Ki is 17 nM.

In turn, `C[C@]12CC[C@@H]3c4cc(F)c(O)cc4CC[C@H]3[C@@H]1CCC2=O` returned a Ki of 100 nM.

`CO[C@@H]1C[C@@H]2[C@H](CC[C@]3(C)C(=O)CC[C@@H]23)[C@@]2(C)CCCC=C12` registered an inhibition constant Ki of 12 nM.

On to `CCCCCC[C@H]1C[C@@H]2[C@H](CC[C@]3(C)C(=O)CC[C@@H]23)[C@@]2(C)CCC(=O)C=C12`, for which affinity was put at a Ki of 9.3 nM.

In turn, `CCCC1=C[C@@H]2[C@H](CC[C@]3(C)C(=O)CC[C@@H]23)[C@@]2(C)C=CC(=O)C=C12` gave a Ki of 2.5 nM. Compared with the last molecule, the Ki is about 3.7-fold lower.

`C[C@]12CC[C@H]3[C@@H](CC[C@]45O[C@H]4C(=O)CC[C@]35C=O)[C@@H]1CCC2=O`: the Ki was 5000 nM.

For `C[C@]12CC[C@H]3[C@@H](CC[C@]45O[C@H]4C(=O)CC[C@]35CO)[C@@H]1CCC2=O`, the Ki was 5000 nM.

Turning to `C[C@]12CC[C@H]3[C@@H](CC=C4C=CCC[C@@]43C)[C@@H]1CC[C@@H]2O`, the inhibitory constant (Ki) was determined as 58 nM.

Regarding `CO[C@H]1C[C@@H]2[C@H](CC[C@]3(C)C(=O)CC[C@@H]23)[C@@]2(C)CCCC=C12`, the Ki was 12 nM.

Turning to `C[C@]12CC[C@@H]3c4ccc(O)cc4CC[C@H]3[C@@H]1CCC2=O` [ESTRONE], the affinity corresponds to a Ki of 2500 nM.

For the molecule `CCCCC[C@@H]1C[C@@H]2[C@H](CC[C@]3(C)C(=O)CC[C@@H]23)[C@@]2(C)CCC(=O)C=C12`, the affinity corresponds to a Ki of 2.8 nM.

With `CCCCCC1=C[C@@H]2[C@H](CC[C@]3(C)C(=O)CC[C@@H]23)[C@@]2(C)CCC(=O)C=C12`, affinity was put at a Ki of 17 nM.

On to `CCCCCCCC1=C[C@@H]2[C@H](CC[C@]3(C)C(=O)CC[C@@H]23)[C@@]2(C)C=CC(=O)C=C12`, for which the Ki came to 2.5 nM. Compared with the last molecule, the Ki is about 6.8-fold lower.

Regarding `C[C@]12CC[C@@H]3c4ccc(O)cc4[C@H](Cc4ccccc4)C[C@H]3[C@@H]1CC[C@@H]2O`, the Ki was 100 nM.

In turn, `C[C@]12CCC(=O)C=C1[C@@H](OCc1ccccc1)C[C@@H]1[C@@H]2CC[C@]2(C)C(=O)CC[C@@H]12` registered a Ki of 7 nM.

`CCCCC1=C[C@@H]2[C@H](CC[C@]3(C)C(=O)CC[C@@H]23)[C@@]2(C)C=CC(=O)C=C12` gave a Ki of 2.5 nM.

Consider `C[C@]12CC[C@H]3[C@@H](CC=C4CCCC[C@@]43C)[C@@H]1CC[C@@H]2O`, for which the affinity, expressed as Ki, was 58 nM.

In turn, `CC1(C)C[C@@]2(C)C(=CC1=O)[C@@H](Br)C[C@@H]1[C@@H]2CC[C@]2(C)C(=O)CC[C@@H]12` came in with an inhibition constant Ki of 14 nM. This Ki lies about 4.1-fold lower than the previous one.

Regarding `C[C@]12CCC=CC1=CC[C@@H]1[C@@H]2CC[C@]2(C)C(=O)CC[C@@H]12`, the Ki was found to be 58 nM.

With `CCCCCCCC[C@H]1C[C@@H]2[C@H](CC[C@]3(C)C(=O)CC[C@@H]23)[C@@]2(C)CCC(=O)C=C12`, the affinity, expressed as Ki, was 9.3 nM. Compared with the last molecule, the Ki is about 6.2-fold lower.

The molecule `C[C@]12CC[C@@H]3c4ccc(O)cc4[C@H](Cc4ccccc4)C[C@H]3[C@@H]1CCC2=O` registered a Ki of 100 nM.

In turn, `C[C@]12CCC(=O)C=C1[C@@H](c1ccc(O)cc1)C[C@@H]1[C@@H]2CC[C@]2(C)C(=O)CC[C@@H]12` gave a Ki of 27 nM.

`C[C@]12CC[C@H]3[C@@H](CC(=O)[C@]45O[C@H]4C(=O)CC[C@]35C=O)[C@@H]1CCC2=O` showed a Ki of 5000 nM.
